“Also recorded” adds a separate entry of the source. No end group written: not given here.
Assays:
CD3ζ = test: tyrosine phosphorylation of CD3ζ, immunoprecipitation and anti-phosphotyrosine immunoblot; type: cell-based, mouse
Experimental: (§1) Immunoprecipitation and Immunoblotting. Enriched primed T cells (2×10^6 cells) in a 24 well Corning plate were TCR-stimulated with 2C11 in the presence of α-MSH (30 pg/ml) under serum-free conditions for 15 minutes. The T cells were collected, placed in a microcentrifuge tube and washed once with 10 mM Tris buffered saline (TBS) and lysed for 30 minutes in 100 μl of ice cold lysate buffer (10 mM TBS, 1% NP-40, 0.5% sodium deoxycholate, 0.1% SDS, 100 μg/ml phenylmethylsulfonyl fluoride (PMSF), 60 μg/ml Aprotinin, and 1 mM sodium orthovanadate). The cells were passed through a 21 gauge needles three times, and an additional 2 μl of 10 mg/ml PMSF was added. The tubes were incubated for an additional 30 minutes on ice and were centrifuged for 20 minutes, 4° C., 13,000×g. The supernatant was collected and used as total cellular lysate. The protein concentration was measured, and added to equal amounts of protein lysate were 20 μg/ml anti-CD3ζ antibody, or anti-CD3ε antibody plus rabbit anti-hamster IgG antibody and incubated overnight at 4° C. The rabbit anti-hamster IgG was needed for the CD3ε immunoprecipitation, since much of the CD3ε was bound by 2C11 a hamster anti-mouse […] and hamster antibody weakly binds protein-G. Protein-G sepharose beads (Pharmacia, Piscataway, N.J.) were added to the antibody containing lysates and incubated for 1 hour at room temperature with end over end agitation. The beads were centrifuged and washed 4 times with 10 mM TBS containing 0.5% sodium deoxycholate. After the final wash the beads were resuspended in 20 μl of distilled water and 20 μl non-reducing SDS Tris-glycine sample buffer (Novex, San Diego, Calif.), boiled for 5 minutes and applied into two wells (20 μl) of a 8-16% Tris-glycine polyacrylamide gel (Novex).
Following electrophoresis in a Novex Xcell II minicell and blot module, the proteins were transferred from the gel onto a nitrocellulose membrane (Novex) by electroblotting. The membrane was blocked with 1% BSA in 0.01 M TBS for 1 hour room temperature. The blocked membrane was placed in a sealable bag containing 5 ml of alkaline-phosphatase conjugated anti-phosphotyrosine antibody PY20 diluted 1/2000 in 1% BSA-TBS buffer. The membrane was incubated overnight at room temperature. The PY20 blotted membrane was washed 3 times with wash buffer containing 1% BSA-TBS and 0.05% Tween-20 and incubated with alkaline phosphatase substrate NBT-BCIP (Sigma Chemical) until bands appeared. The membrane was washed with distilled water. In parallel, some lanes on the membrane were immunoblotted with anti-CD3ζ antibody and alkaline phosphatase conjugated anti-mouse IgG (Sigma Chemical) to detect the relative mobility of CD3ζ protein. Membranes were digitally photographed and analyzed using NIH Image software to integrate the band intensities relative to band area minus background. […]
(§2) The enriched primed T cells (2×10^6 cells) were incubated with anti-CD3 in the presence of α-MSH (30 pg/ml) for 15 minutes. […] The immunoprecipitates were analyzed by non-reducing SDS-PAGE (on a 8-16% gradient gel), followed by transfer to a nitrocellulose filter and immunoblotting with anti-phosphotyrosine antibody: (1) Unstimulated primed T cells treated with α-MSH; (2) Unstimulated primed T cells incubated in media alone; (3) Enriched primed T cells TCR-stimulated in the absence of α-MSH; (4) Enriched primed T cells TCR-stimulated in the presence of α-MSH. […]

CD3ε = test: tyrosine phosphorylation of CD3ε, immunoprecipitation and anti-phosphotyrosine immunoblot; type: cell-based, mouse
Experimental: as §1
Following electrophoresis in a Novex Xcell II minicell and blot module, the proteins were transferred from the gel onto a nitrocellulose membrane (Novex) by electroblotting. The membrane was blocked with 1% BSA in 0.01 M TBS for 1 hour room temperature. […] Membranes were digitally photographed and analyzed using NIH Image software to integrate the band intensities relative to band area minus background. […]
as §2

primed T cells = test: proliferation of TCR-stimulated primed T cells (3H-thymidine incorporation); type: cell-based, mouse (BALB/c); settings: primed T cells + anti-CD3ε 2C11, α-MSH present, 3H-thymidine at 24 h, counted at 48 h
[1] = tested on: experimental autoimmune uveitis; test: EAU, α-MSH injected i.v. at the time of peak retinal inflammation; type: in vivo, mouse
[2] = TCR-stimulated primed T cells, α-MSH 30 pg/ml, 15 minutes (lane 4; without α-MSH 10)
[3] = TCR-stimulated primed T cells, α-MSH 30 pg/ml, 15 minutes, Example III (FIG. 18A)
[4] = unstimulated primed T cells, α-MSH 30 pg/ml, 15 minutes (lane 1; media alone 1)

## α-melanocyte stimulating hormone (SYSMEHFRWGKPV; not fully specified; ends and bridges not checked; UniProt P01189 138-150, looked up) [α-MSH, synthetic α-MSH (Peninsula Laboratories); thirteen-amino acid neuropeptide derived from POMC]
CD3ζ; TCR-stimulated primed T cells, versus stimulated in the absence of α-MSH
  increase in CD3ζ tyrosine phosphorylation: 6.7 fold
CD3ζ; [2]
  relative intensity of phosphotyrosine band, CD3ζ: 67
CD3ζ; [3]
  overall level of tyrosine phosphorylation of CD3ζ: no significant change
CD3ζ; unstimulated primed T cells
  stimulation of tyrosine phosphorylation of CD3ζ dimers: 4 fold
CD3ζ; [4]
  relative intensity of phosphotyrosine band, CD3ζ: 4
CD3ε; TCR-stimulated and unstimulated primed T cells, Example I (FIG. 7B)
  level of tyrosine phosphorylation of CD3ε chains: no effect
CD3ε; [2]
  relative intensity of phosphotyrosine band, CD3ε: 10
CD3ε; [3]
  overall level of tyrosine phosphorylation of CD3ε: no significant change
CD3ε; [4]
  relative intensity of phosphotyrosine band, CD3ε: 1
Primed T cells
  TCR-stimulated T cell proliferation: no affect; also recorded: no effect
[1]
  severity of experimental autoimmune uveitis (EAU): significantly suppressed
